Experimental data reported in patent US20230227466A1, “SUBSTITUTED THIENOPYRIMIDINES THAT INTERACT WITH THE RAS SUPERFAMILY FOR THE TREATMENT OF CANCERS, INFLAMMATORY DISEASES, RASOPATHIES, AND FIBROTIC DISEASE” (SHY Therapeutics, LLC, priority 2020, published 2023).

What was measured:
[1] = system: ERK1/2 phosphorylation in Panc-1 cells; assay: Western ERK1/2 cell-based phosphorylation assay; parameters: species or system human; conditions: at 10 μM, values in brackets < > are activation %, not inhibition
Procedure: Cell lines: Human tumor-derived pancreatic cancer cell line Panc-1 was purchased from American Type Culture Collection and grown in complete DMEM-High Glucose, supplemented with penicillin (100 U/mL), streptomycin (100 μg/mL), and 10% heat-inactivated FBS at 37° C. in a humidified incubator with 5% CO2.
(§1) Method: Cells were plated at 350000 cells/well density in a 12-well plate, allowed 3 hours to adhere to the plate, then starved in the appropriate medium in the presence of 0.5% FBS overnight. The small molecules to be tested were added to the cells in the final concentration of 10 μM in the presence of 0.3% DMSO for 6 hours incubation at 37° C. For IC50 value determination, serial dilutions of compounds were added to cells under the same conditions. Next, cells were stimulated with 1.5 ng/ml EGF for 15 minutes then cells were lysed with lysis buffer containing 1% Triton X-100, EDTA, and Halt™ Protease & Phosphatase Inhibitor Cocktail (Thermo Scientific). Protein concentration was assessed by BCA protein assay (Thermo Scientific). Phosphorylation level of ERK1/2 was determined by western blot.
(§2) Western blot protocol: Equal amounts of protein (15-50 μg) were separated by SDS-PAGE and transferred to nitrocellulose membranes (Invitrogen by Thermo Fisher Scientific). The membrane was stained with Ponceau S Stain (Boston BioProducts) to verify uniform protein loading. Membranes were blocked with 10% milk and phosphorylation levels of ERK1/2 were assessed by incubating overnight at 4° C. with anti-phospho-p44/42 (Thr202/Tyr204) antibody (Cell Signaling) followed by HRP-conjugated secondary antibody (Jackson Immunoresearch, West Grove, Pa.). Bands were incubated in Amersham ECL Prime Western Blotting Detection Reagent (GE Healthcare) and visualized using the ChemiDoc MP imaging system (Bio-Rad). Protocol for Western AKT cell-based phosphorylation assay

[2] = system: Akt phosphorylation in Panc-1 cells; assay: Western AKT cell-based phosphorylation assay; parameters: species or system human; conditions: at 10 μM, values in brackets < > are activation %, not inhibition
Procedure: Human Tumor-Derived Pancreatic Cancer Cell Line Panc-1 was Purchased from
American Type Culture Collection and grown in complete DMEM-High Glucose supplemented with penicillin (100 U/mL), streptomycin (100 μg/mL), and 10% heat-inactivated FBS at 37° C. in a humidified incubator with 5% CO2.
as §1, with “C.” for “C. For IC50 value determination, serial dilutions of compounds were added to cells under the same conditions.”, “Akt” for “ERK1/2”
as §2, with “Akt” for “ERK1/2”, “anti-phospho-Akt (Ser473)” for “anti-phospho-p44/42 (Thr202/Tyr204)”, “(Bio-Rad).” for “(Bio-Rad). Protocol for Western AKT cell-based phosphorylation assay”

Row | SMILES | % inh of ERK1/2 phosphorylation in PANC-1 [1] | % inh of AKT phosphorylation in PANC-1 [2]
1 | COCCn1ccnc1-c1nc(N[C@@H]2CC[C@H](OC)C2)c2c(-c3ccccc3)c(-c3ccn(C)n3)sc2n1 (racemic) [Compound 6, Rac-N-((1R,3S)-3-methoxycyclopentyl)-2-(1-(2-methoxyethyl)-1H-imidazol-2-yl)-6-(1-methyl-1H-pyrazol-3-yl)-5-phenylthieno[2,3-d]pyrimidin-4-amine] | D (76-100% inhibition) | 0 (0% inhibition)
2 | COCCn1ccnc1-c1nc(N[C@@H]2CC[C@H](OC)C2)c2ccsc2n1 (racemic) [Compound 8, Rac-N-((1R,3S)-3-methoxycyclopentyl)-2-(1-(2-methoxyethyl)-1H-imidazol-2-yl)thieno[2,3-d]pyrimidin-4-amine] | 0 (0% inhibition) | 0 (0% inhibition)
3 | CO[C@H]1CC[C@@H](Nc2nc(-c3nccn3C)nc3sccc23)C1 (racemic) [Compound 10, Rac-N-((1R,3S)-3-methoxycyclopentyl)-2-(1-methyl-1H-imidazol-2-yl)thieno[2,3-d]pyrimidin-4-amine] | A (1-25% inhibition) | 0 (0% inhibition)
4 | CO[C@H]1CC[C@@H](Nc2nc(C(N)=O)nc3sccc23)C1 (racemic) [Compound 11, Rac-4-(((1R,3S)-3-methoxycyclopentyl)amino)thieno[2,3-d]pyrimidine-2-carboxamide] | 0 (0% inhibition) | 0 (0% inhibition)
5 | CO[C@H]1CC[C@@H](Nc2nc(C(=O)N3CCOCC3)nc3sccc23)C1 (racemic) [Compound 12, Rac-(4-(((1R,3S)-3-methoxycyclopentyl)amino)thieno[2,3-d]pyrimidin-2-yl)(morpholino)methanone] | 0 (0% inhibition) | 0 (0% inhibition)
6 | CO[C@H]1CC[C@@H](Nc2nc(C(=O)NC(C)C)nc3sccc23)C1 (racemic) [Compound 13, Rac-N-isopropyl-4-(((1R,3S)-3-methoxycyclopentyl)amino)thieno[2,3-d]pyrimidine-2-carboxamide] | 0 (0% inhibition) | 0 (0% inhibition)
7 | COCCNC(=O)c1nc(N[C@@H]2CC[C@H](OC)C2)c2ccsc2n1 (racemic) [Compound 14, rac-4-(((1R,3S)-3-Methoxycyclopentyl)amino)-N-(2-methoxyethyl)thieno[2,3-d]pyrimidine-2-carboxamide] | 0 (0% inhibition) | 0 (0% inhibition)
8 | CO[C@H]1CC[C@@H](Nc2nc(C(=O)Nc3ccccc3)nc3sccc23)C1 (racemic) [Compound 15, rac-4-(((1R,3S)-3-Methoxycyclopentyl)amino)-N-phenylthieno[2,3-d]pyrimidine-2-carboxamide] | 0 (0% inhibition) | 0 (0% inhibition)
9 | CO[C@H]1CC[C@@H](Nc2nc(C(=O)Nc3ccccn3)nc3sccc23)C1 (racemic) [Compound 16, rac-4-(((1R,3S)-3-Methoxycyclopentyl)amino)-N-(pyridin-2-yl)thieno[2,3-d]pyrimidine-2-carboxamide] | 0 (0% inhibition) | 0 (0% inhibition)
10 | CO[C@H]1CC[C@@H](Nc2nc(C(N)=O)nc3sc(-c4ccn(C(C)C)n4)cc23)C1 (racemic) [Compound 17, Rac-6-(1-isopropyl-1H-pyrazol-3-yl)-4-(((1R,3S)-3-methoxycyclopentyl)amino)thieno[2,3-d]pyrimidine-2-carboxamide] | A (1-25% inhibition) | 0 (0% inhibition)
11 | CO[C@H]1CC[C@@H](Nc2nc(C(=O)N3CCCC3)nc3sccc23)C1 (racemic) [Compound 25, Rac-(4-(((1R,3S)-3-Methoxycyclopentyl)amino)thieno[2,3-d]pyrimidin-2-yl)(pyrrolidin-1-yl)methanone] | 0 (0% inhibition) | 0 (0% inhibition)
12 | Cc1c(-c2ccn(C(C)C)n2)sc2nc(-c3nccn3C)nc(NC3CCOC3)c12 (racemic) [Compound 37, rac-6-(1-Isopropyl-1H-pyrazol-3-yl)-5-methyl-2-(1-methyl-1H-imidazol-2-yl)-N-(tetrahydrofuran-3-yl)thieno[2,3-d]pyrimidin-4-amine] | 0 (0% inhibition) | 0 (0% inhibition)
13 | COCC1COCCN1c1nc(-c2nccn2C)nc2sc(-c3ccn(C(C)C)n3)c(C)c12 (racemic) [Compound 41, rac-4-(6-(1-Isopropyl-1H-pyrazol-3-yl)-5-methyl-2-(1-methyl-1H-imidazol-2-yl)thieno[2,3-d]pyrimidin-4-yl)-3-(methoxymethyl)morpholine] | 0 (0% inhibition) | 0 (0% inhibition)
14 | COCC1CN(c2nc(-c3nccn3C)nc3sc(-c4ccn(C(C)C)n4)c(C)c23)CCO1 (racemic) [Compound 45, rac-4-(6-(1-Isopropyl-1H-pyrazol-3-yl)-5-methyl-2-(1-methyl-1H-imidazol-2-yl)thieno[2,3-d]pyrimidin-4-yl)-2-(methoxymethyl)morpholine] | B (26-50% inhibition) | <D>
15 | Cc1c(-c2ccn(C(C)C)n2)sc2nc(-c3nccn3C)nc(NCCC3CCC(=O)N3)c12 (racemic) [Compound 56, rac-5-(2-((6-(1-Isopropyl-1H-pyrazol-3-yl)-5-methyl-2-(1-methyl-1H-imidazol-2-yl)thieno[2,3-d]pyrimidin-4-yl)amino)ethyl)pyrrolidin-2-one] | 0 (0% inhibition) | 0 (0% inhibition)
16 | CO[C@@H]1CC[C@H]1CNc1nc(-c2nccn2C)nc2sc(-c3ccn(C(C)C)n3)c(C)c12 (racemic) [Compound 61, rac-6-(1-Isopropyl-1H-pyrazol-3-yl)-N-(((1S,2R)-2-methoxycyclobutyl)methyl)-5-methyl-2-(1-methyl-1H-imidazol-2-yl)thieno[2,3-d]pyrimidin-4-amine] | D (76-100% inhibition) | 0 (0% inhibition)
17 | Cc1c(-c2ccn(C(C)C)n2)sc2nc(-c3nccn3C)nc(N3CCC(COC(C)C)C3)c12 (racemic) [Compound 62, rac-4-(3-(Isopropoxymethyl)pyrrolidin-1-yl)-6-(1-isopropyl-1H-pyrazol-3-yl)-5-methyl-2-(1-methyl-1H-imidazol-2-yl)thieno[2,3-d]pyrimidine] | D (76-100% inhibition) | B (26-50% inhibition)
18 | COC1CCCN(c2nc(-c3ccccn3)nc3sc(-c4ccn(C(C)C)n4)c(C)c23)C1 (racemic) [Compound 70, Rac-6-(1-Isopropyl-1H-pyrazol-3-yl)-4-(3-methoxypiperidin-1-yl)-5-methyl-2-(pyridin-2-yl)thieno[2,3-d]pyrimidine] | 0 (0% inhibition) | 0 (0% inhibition)
19 | COCC1CCN(c2nc(-c3ccccn3)nc3sc(-c4ccn(C(C)C)n4)c(C)c23)C1 (racemic) [Compound 71, Rac-6-(1-Isopropyl-1H-pyrazol-3-yl)-4-(3-(methoxymethyl)pyrrolidin-1-yl)-5-methyl-2-(pyridin-2-yl)thieno[2,3-d]pyrimidine] | D (76-100% inhibition) | D (76-100% inhibition)
